Measurements reported in ChEMBL document CHEMBL4028827, “Discovery of indazole aldosterone synthase (CYP11B2) inhibitors as potential treatments for hypertension” (Bioorg Med Chem Lett, 2017).

Tests used:
[1] = target: T1, Cytochrome P450 11B2, mitochondrial (Homo sapiens, UniProt P19099); experiment: Inhibition of human CYP11B2-CLE9 expressed in Chinese hamster V79 cells using 11-deoxycorticosterone as substrate preincubated for 1 hr followed by substrate addition measured for 3 hrs by HTRF assay; format: cell-based
T1 sequence (P19099 whole entry): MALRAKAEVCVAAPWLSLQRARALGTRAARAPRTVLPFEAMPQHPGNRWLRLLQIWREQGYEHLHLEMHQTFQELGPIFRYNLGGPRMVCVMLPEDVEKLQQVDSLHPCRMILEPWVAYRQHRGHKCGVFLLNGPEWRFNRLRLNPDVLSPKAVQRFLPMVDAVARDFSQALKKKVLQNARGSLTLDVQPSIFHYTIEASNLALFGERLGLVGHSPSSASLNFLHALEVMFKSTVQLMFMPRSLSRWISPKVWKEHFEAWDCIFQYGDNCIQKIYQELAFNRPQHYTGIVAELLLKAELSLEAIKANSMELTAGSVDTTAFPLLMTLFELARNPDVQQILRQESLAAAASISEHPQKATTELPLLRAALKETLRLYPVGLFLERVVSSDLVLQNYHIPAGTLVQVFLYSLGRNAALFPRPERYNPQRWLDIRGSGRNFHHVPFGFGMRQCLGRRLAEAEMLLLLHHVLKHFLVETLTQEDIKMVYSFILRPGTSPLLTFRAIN

[2] = target: T2, Cytochrome P450 11B1, mitochondrial (Homo sapiens, UniProt P15538); experiment: Inhibition of human CYP11B1-8C7 expressed in Chinese hamster V79 cells using 11-deoxycortisol as substrate preincubated for 1 hr followed by substrate addition measured for 3 hrs by HTRF assay; format: ADME, cell-based
T2 sequence (P15538 whole entry): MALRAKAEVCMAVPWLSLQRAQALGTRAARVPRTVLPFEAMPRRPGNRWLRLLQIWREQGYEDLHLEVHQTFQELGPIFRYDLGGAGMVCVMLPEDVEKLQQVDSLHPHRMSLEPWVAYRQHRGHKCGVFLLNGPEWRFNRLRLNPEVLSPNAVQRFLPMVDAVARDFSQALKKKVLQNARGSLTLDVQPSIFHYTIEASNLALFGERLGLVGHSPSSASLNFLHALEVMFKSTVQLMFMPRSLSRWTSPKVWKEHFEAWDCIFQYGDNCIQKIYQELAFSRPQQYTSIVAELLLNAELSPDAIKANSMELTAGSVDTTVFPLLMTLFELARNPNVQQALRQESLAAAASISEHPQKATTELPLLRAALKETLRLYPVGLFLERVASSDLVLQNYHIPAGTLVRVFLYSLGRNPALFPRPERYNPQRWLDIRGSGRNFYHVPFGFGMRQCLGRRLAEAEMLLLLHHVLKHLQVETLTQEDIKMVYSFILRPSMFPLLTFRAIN

[3] = Selectivity ratio of IC50 for human CYP11B1-8C7 expressed in Chinese hamster V79 cells to IC50 for human CYP11B2-CLE9 expressed in Chinese hamster V79 cells
[4] = Intrinsic clearance in rat liver microsomes at […] preincubated for 10 mins followed by NADPH addition measured after 45 mins by LC-MS analysis; format: ADME, microsome; settings: read-out: CLH
[5] = target: T3, Cytochrome P450 11B2, mitochondrial (Rattus norvegicus, UniProt P30099); experiment: Inhibition of rat CYP11B2-1F4 expressed in Chinese hamster V79 cells using 11-deoxycorticosterone as substrate preincubated for 1 hr followed by substrate addition measured for 3 hrs by HTRF assay; format: cell-based
T3 sequence (P30099 whole entry): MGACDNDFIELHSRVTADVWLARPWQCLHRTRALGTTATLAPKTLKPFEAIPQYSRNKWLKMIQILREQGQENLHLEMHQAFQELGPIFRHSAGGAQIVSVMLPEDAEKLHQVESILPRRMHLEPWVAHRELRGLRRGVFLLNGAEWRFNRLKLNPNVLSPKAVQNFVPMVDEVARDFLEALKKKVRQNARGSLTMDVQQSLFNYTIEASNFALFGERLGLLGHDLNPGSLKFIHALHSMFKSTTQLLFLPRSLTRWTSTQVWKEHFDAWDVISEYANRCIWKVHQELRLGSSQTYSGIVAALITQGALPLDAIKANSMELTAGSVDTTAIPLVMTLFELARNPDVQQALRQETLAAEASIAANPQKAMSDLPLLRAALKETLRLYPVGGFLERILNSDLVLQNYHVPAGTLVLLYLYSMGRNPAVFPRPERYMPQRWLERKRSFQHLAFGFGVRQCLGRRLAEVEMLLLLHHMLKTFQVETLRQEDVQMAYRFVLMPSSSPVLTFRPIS

[6] = target: T4, Steroid 17-alpha-hydroxylase/17,20 lyase (Homo sapiens, UniProt P05093); experiment: Inhibition of human CYP17 expressed in African green monkey COS7 cells using 17-hydroxypregnenolone as substrate preincubated for 1 hr followed by substrate addition measured after 3 hrs by EIA; format: cell-based
T4 sequence (P05093 whole entry): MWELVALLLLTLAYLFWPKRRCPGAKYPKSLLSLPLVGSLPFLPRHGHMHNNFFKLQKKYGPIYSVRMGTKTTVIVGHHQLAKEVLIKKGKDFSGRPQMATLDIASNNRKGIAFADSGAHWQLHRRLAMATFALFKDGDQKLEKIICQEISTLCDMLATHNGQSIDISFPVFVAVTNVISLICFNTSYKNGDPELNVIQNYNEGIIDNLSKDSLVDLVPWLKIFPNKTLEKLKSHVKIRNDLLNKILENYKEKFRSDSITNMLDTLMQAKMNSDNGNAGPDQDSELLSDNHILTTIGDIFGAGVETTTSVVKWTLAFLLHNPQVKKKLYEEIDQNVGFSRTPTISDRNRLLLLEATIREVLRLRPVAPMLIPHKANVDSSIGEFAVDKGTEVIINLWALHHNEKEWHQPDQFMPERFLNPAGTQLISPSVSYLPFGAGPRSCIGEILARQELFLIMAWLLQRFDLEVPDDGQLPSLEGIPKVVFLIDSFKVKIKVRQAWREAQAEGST

[7] = target: T5, Aromatase (Homo sapiens, UniProt P11511); experiment: Inhibition of CYP19 (unknown origin) using MFC as substrate and NADPH as cofactor preincubated for 10 mins with cofactor followed by substrate/enzyme addition measured after 30 mins
T5 sequence (P11511 whole entry): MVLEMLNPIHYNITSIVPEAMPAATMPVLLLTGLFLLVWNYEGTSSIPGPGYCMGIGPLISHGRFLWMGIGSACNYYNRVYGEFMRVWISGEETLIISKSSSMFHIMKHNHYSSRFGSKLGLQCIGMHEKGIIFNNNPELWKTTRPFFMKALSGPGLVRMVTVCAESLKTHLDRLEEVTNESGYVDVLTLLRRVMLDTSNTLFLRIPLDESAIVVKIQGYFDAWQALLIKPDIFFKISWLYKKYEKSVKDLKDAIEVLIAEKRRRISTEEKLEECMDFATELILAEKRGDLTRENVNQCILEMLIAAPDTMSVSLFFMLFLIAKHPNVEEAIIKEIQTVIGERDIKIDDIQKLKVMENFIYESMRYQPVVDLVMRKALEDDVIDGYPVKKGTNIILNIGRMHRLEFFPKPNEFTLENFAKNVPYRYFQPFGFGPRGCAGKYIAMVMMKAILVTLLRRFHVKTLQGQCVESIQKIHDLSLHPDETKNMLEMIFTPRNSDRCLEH

[8] = target: T6, Steroid 21-hydroxylase (Homo sapiens, UniProt P08686); experiment: Inhibition of human CYP21 expressed in African green monkey COS7 cells using […] as substrate preincubated for 1 hr followed by substrate addition measured for 3 hrs by HTRF assay; format: cell-based
T6 sequence (P08686 whole entry): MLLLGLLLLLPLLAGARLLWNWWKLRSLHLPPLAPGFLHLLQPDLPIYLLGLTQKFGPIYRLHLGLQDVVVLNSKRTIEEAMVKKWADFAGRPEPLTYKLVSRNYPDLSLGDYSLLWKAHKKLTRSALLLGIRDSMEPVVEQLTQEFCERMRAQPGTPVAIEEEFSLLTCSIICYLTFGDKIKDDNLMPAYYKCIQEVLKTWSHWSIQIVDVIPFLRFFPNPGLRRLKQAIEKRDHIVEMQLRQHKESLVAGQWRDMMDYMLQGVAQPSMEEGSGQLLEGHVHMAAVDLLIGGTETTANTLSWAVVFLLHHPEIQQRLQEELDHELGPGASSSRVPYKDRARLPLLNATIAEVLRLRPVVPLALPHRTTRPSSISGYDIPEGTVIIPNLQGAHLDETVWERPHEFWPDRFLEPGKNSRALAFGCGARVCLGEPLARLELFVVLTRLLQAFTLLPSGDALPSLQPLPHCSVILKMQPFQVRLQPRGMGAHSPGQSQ

[9] = target: Cytochrome P450 3A4 (Homo sapiens, UniProt P08684); experiment: Inhibition of hepatic CYP3A4 (unknown origin); format: ADME
Sequence of Cytochrome P450 3A4 (P08684 whole entry): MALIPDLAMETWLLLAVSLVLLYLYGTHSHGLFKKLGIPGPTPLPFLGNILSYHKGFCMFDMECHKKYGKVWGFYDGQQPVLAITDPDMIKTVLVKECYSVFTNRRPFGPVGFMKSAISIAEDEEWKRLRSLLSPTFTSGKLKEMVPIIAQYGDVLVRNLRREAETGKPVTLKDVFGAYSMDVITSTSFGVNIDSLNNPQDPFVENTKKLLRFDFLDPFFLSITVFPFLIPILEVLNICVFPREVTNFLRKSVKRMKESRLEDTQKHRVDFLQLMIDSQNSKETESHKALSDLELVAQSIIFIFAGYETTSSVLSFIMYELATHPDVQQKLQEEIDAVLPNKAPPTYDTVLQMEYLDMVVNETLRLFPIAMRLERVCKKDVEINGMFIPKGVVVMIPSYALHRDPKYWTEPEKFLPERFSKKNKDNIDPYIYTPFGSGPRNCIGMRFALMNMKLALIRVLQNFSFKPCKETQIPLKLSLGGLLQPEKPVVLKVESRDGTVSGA

[10] = target: Cytochrome P450 2C9 (Homo sapiens, UniProt P11712); experiment: Inhibition of hepatic CYP2C9 (unknown origin); format: ADME
Sequence of Cytochrome P450 2C9 (P11712 whole entry): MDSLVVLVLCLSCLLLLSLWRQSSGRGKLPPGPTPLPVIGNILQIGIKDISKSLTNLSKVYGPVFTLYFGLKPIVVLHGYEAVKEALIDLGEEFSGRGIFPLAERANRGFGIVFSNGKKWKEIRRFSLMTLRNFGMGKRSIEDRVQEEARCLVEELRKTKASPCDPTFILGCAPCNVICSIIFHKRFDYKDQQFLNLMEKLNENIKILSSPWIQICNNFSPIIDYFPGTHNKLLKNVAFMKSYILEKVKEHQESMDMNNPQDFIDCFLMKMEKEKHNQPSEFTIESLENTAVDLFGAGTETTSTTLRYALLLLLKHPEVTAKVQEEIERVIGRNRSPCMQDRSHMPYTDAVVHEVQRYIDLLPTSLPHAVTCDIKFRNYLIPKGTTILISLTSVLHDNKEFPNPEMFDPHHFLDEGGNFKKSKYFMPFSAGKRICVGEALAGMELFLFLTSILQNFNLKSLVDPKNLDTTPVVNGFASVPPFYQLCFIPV

[11] = target: Cytochrome P450 2D6 (Homo sapiens, UniProt P10635); experiment: Inhibition of hepatic CYP2D6 (unknown origin); format: ADME
Sequence of Cytochrome P450 2D6 (P10635 whole entry): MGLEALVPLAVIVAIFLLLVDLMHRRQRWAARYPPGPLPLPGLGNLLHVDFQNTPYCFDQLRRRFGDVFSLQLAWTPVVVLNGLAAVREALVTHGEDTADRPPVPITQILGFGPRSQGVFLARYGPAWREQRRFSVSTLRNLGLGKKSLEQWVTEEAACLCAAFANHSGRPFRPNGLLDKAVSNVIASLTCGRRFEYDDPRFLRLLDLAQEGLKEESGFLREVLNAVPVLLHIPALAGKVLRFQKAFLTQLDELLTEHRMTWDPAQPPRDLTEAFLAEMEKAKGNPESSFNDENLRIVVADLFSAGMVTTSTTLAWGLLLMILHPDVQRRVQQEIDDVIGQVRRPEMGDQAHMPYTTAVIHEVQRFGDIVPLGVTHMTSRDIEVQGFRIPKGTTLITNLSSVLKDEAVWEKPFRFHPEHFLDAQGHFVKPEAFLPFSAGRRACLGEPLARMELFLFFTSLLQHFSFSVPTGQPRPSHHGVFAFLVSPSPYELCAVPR

Compound	IC50 [1] [nM]	IC50 [2] [nM]	CLint scaled [4] [mL/min/kg]	Ratio IC50 [3]	further results
COc1ccc2c(cnn2-c2cncc(C(C)(C)O)c2)c1	84.9 to 85	1000	–	12	–
Cc1nn(-c2cncc(C(C)(C)O)c2)c2ccccc12	33.5 to 34	779 to 780	–	44	–
CC(C)(O)c1cncc(-n2ncc3c(Cl)ccc(F)c32)c1	0.2 to 0.4	1.1 to 7.72	–	5 - 20	–
CC(C)(O)c1cncc(-n2nc(C3CC3)c3ccccc32)c1	760 to 763	8300 to 8330	–	>11	–
CC(C)(O)c1cncc(-n2ncc3ccc(C(F)(F)F)cc32)c1	2300	8300 to 8330	–	>4	–
CC(C)(O)c1cncc(-n2ncc3ccccc32)c1	15 to 15.1	535 to 540	< 20	36	–
CC(C)(O)c1cncc(-n2ncc3ccc(F)cc32)c1	78.5 to 79	1990 to 2000	83	25	–
C[C@](O)(c1cncc(-n2nc(C(F)(F)F)c3ccccc32)c1)C(F)(F)F	77 to 77.4	856 to 860	–	11	IC50 [5]: 77 nM; IC50 [6]: > 10000 nM; IC50 [7]: 5400 nM; IC50 [8]: > 10000 nM; IC50 [9]: > 50000 nM; IC50 [10]: 7200 nM; IC50 [11]: > 50000 nM
CC(C)(O)c1cncc(-n2ncc3c(F)ccc(F)c32)c1	0.3 to 0.8	1.8 to 8.9	< 20	6 - 11	–
CC(C)(O)c1cncc(-n2ncc3cc(F)ccc32)c1	10.9 to 13	197 to 210	30	15 - 19	–
Cc1ccc2c(cnn2-c2cncc(C(C)(C)O)c2)c1	97.9 to 98	916 to 920	–	9	–
COc1cncc(-n2ncc3cc(F)ccc32)c1	44 to 44.1	1300	–	30	–
CC(C)(O)c1cncc(-n2ncc3cccc(F)c32)c1	0.9	10.7 to 11	< 20	12	–
CC(C)(O)c1cncc(-n2ncc3ccc(Cl)cc32)c1	528 to 530	8300 to 8330	–	>16	–
COc1nn(-c2cncc(C(C)(C)O)c2)c2ccccc12	25	1400 to 1410	–	57	–
CC(C)(O)c1cncc(-n2ncc3c(F)cccc32)c1	7.58 to 8	149 to 150	64	19	–
CC(C)(O)c1cncc(-n2nc(C(F)(F)F)c3ccccc32)c1	300 to 304	8300 to 8330	–	>27	–
Fc1ccc2c(cnn2-c2cncc(C(F)(F)F)c2)c1	88 to 88.3	1690 to 1700	300	19	–

More lines, main results first:

IC50 [1] [nM]	IC50 [2] [nM]	CLint scaled [4] [mL/min/kg]	Compound	Ratio IC50 [3]	further results
1160	8300 to 8330	–	CC(C)(O)c1cncc(-n2ncc3cc(C#N)ccc32)c1	>7	–
507 to 510	1200 to 1240	< 20	CC(C)(O)c1cncc(-n2ncc3cc(C(F)(F)F)ccc32)c1	2	–
2 to 2.13	47 to 47.4	230	CC(O)(c1cncc(-n2ncc3cc(F)ccc32)c1)C(F)(F)F (configuration not stated)	24	–
456 to 460	8300 to 8330	85	Fc1cncc(-n2ncc3cc(F)ccc32)c1	>18	–
7.77 to 8	210	–	Cc1cccc2c1cnn2-c1cncc(C(C)(C)O)c1	27	–
22 to 22.1	–	–	COC(=O)c1cccc2c1cnn2-c1cncc(C(C)(C)O)c1	–	–
1.3 to 1.31	22 to 22.3	–	Cc1nn(-c2cncc(C(C)(C)O)c2)c2cccc(F)c12	17	IC50 [5]: 1.3 nM; IC50 [6]: > 10000 nM; IC50 [7]: 6900 nM; IC50 [8]: > 10000 nM; IC50 [9]: > 50000 nM; IC50 [10]: 4700 nM; IC50 [11]: > 50000 nM
27 to 27.3	470	–	CC(C)(O)c1cncc(-n2ncc3cc(Cl)ccc32)c1	17	–
31	520	–	COC(=O)c1cncc(-n2ncc3cc(F)ccc32)c1	17	–
217 to 220	8300 to 8330	43	Fc1ccc2c(cnn2-c2cccnc2)c1	>38	–
